Laboratory results as given in PubChem BioAssay (NCI).
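Grown in 96-well plates, cells were treated for 48 hours with each compound at five concentrations. Insufficient inhibition: endpoint recorded as highest concentration tested. TGI is the concentration that stops growth completely.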

What was measured:
Assay in all cases: DTP human tumour cell line panel, 48 h
HL-60(TB) leukemia = system: HL-60(TB) leukemia
SK-MEL-5 melanoma = system: SK-MEL-5 melanoma
SW-620 colon = system: SW-620 colon
SK-MEL-28 melanoma = system: SK-MEL-28 melanoma
NCI-H460 lung = system: NCI-H460 lung
CCRF-CEM leukemia = system: CCRF-CEM leukemia
MDA-N = system: MDA-N
HS 578T breast = system: HS 578T breast
MALME-3M melanoma = system: MALME-3M melanoma
PC-3 prostate = system: PC-3 prostate
SF-539 CNS = system: SF-539 CNS
NCI-H23 lung = system: NCI-H23 lung
SK-OV-3 ovarian = system: SK-OV-3 ovarian
HOP-62 NSCLC = system: HOP-62 NSCLC
OVCAR-3 ovarian = system: OVCAR-3 ovarian
A549 NSCLC = system: A549 NSCLC
SR leukemia = system: SR leukemia
DU-145 prostate = system: DU-145 prostate
SN12C renal = system: SN12C renal
HCT-15 colon = system: HCT-15 colon
RXF 393 renal = system: RXF 393 renal
U251 CNS = system: U251 CNS
LOX IMVI melanoma = system: LOX IMVI melanoma
KM12 colon = system: KM12 colon
K-562 leukemia = system: K-562 leukemia
A498 renal = system: A498 renal
EKVX NSCLC = system: EKVX NSCLC
NCI-H522 lung = system: NCI-H522 lung
OVCAR-5 ovarian = system: OVCAR-5 ovarian
RPMI-8226 leukemia = system: RPMI-8226 leukemia
MCF7 breast = system: MCF7 breast
MOLT-4 leukemia = system: MOLT-4 leukemia
T-47D breast = system: T-47D breast
OVCAR-4 ovarian = system: OVCAR-4 ovarian
UO-31 renal = system: UO-31 renal
ACHN renal = system: ACHN renal
786-0 renal = system: 786-0 renal
SF-268 CNS = system: SF-268 CNS
IGROV1 ovarian = system: IGROV1 ovarian
BT-549 breast = system: BT-549 breast
HT29 colon = system: HT29 colon
CAKI-1 renal = system: CAKI-1 renal
UACC-62 melanoma = system: UACC-62 melanoma
MDA-MB-231 breast = system: MDA-MB-231 breast
HOP-92 NSCLC = system: HOP-92 NSCLC
UACC-257 melanoma = system: UACC-257 melanoma
TK-10 renal = system: TK-10 renal
NCI-H226 lung = system: NCI-H226 lung
M14 melanoma = system: M14 melanoma
OVCAR-8 ovarian = system: OVCAR-8 ovarian
MDA-MB-435 = system: MDA-MB-435
SF-295 CNS = system: SF-295 CNS
NCI/ADR-RES ovarian = system: NCI/ADR-RES ovarian
HCT-116 colon = system: HCT-116 colon
SNB-19 CNS = system: SNB-19 CNS
COLO 205 colon = system: COLO 205 colon
SNB-75 CNS = system: SNB-75 CNS
SK-MEL-2 melanoma = system: SK-MEL-2 melanoma
HCC-2998 colon = system: HCC-2998 colon

## C/C(=C/CC[C@](C)(OC1OC(CO)C(O)C(O)C1O)[C@H]1CC[C@]2(C)[C@@H]1CC[C@@H]1[C@@]3(C)CC[C@H](O)C(C)(C)[C@@H]3C[C@H](O)[C@]12C)CO (stereo not given in full)
HL-60(TB) leukemia
  TGI: 49.9 µM
SK-MEL-5 melanoma
  TGI: 39.8 µM
SW-620 colon
  TGI: 62.4 µM
SK-MEL-28 melanoma
  TGI: 38.5 µM
NCI-H460 lung
  TGI: 48.9 µM
CCRF-CEM leukemia
  TGI: 95.9 µM
MDA-N
  TGI: 56.6 µM
HS 578T breast
  TGI: 55.3 µM
MALME-3M melanoma
  TGI: 56.5 µM
PC-3 prostate
  TGI: 98.2 µM
SF-539 CNS
  TGI: 35.6 µM
NCI-H23 lung
  TGI: > 100 µM
SK-OV-3 ovarian
  TGI: > 100 µM
HOP-62 NSCLC
  TGI: 69.9 µM
OVCAR-3 ovarian
  TGI: 79.7 µM
A549 NSCLC
  TGI: > 100 µM
SR leukemia
  TGI: > 100 µM
DU-145 prostate
  TGI: > 100 µM
SN12C renal
  TGI: 66.4 µM
HCT-15 colon
  TGI: 57.5 µM
RXF 393 renal
  TGI: 19.4 µM
U251 CNS
  TGI: 28.5 µM
LOX IMVI melanoma
  TGI: 33.9 µM
KM12 colon
  TGI: 47.8 µM
K-562 leukemia
  TGI: 62.2 µM
A498 renal
  TGI: > 100 µM
EKVX NSCLC
  TGI: > 100 µM
NCI-H522 lung
  TGI: 42.7 µM
OVCAR-5 ovarian
  TGI: > 100 µM
RPMI-8226 leukemia
  TGI: 28.3 µM
MCF7 breast
  TGI: > 100 µM
MOLT-4 leukemia
  TGI: 53.6 µM
T-47D breast
  TGI: 60.4 µM
OVCAR-4 ovarian
  TGI: > 100 µM
UO-31 renal
  TGI: > 100 µM
ACHN renal
  TGI: > 100 µM
786-0 renal
  TGI: 61.2 µM
SF-268 CNS
  TGI: 90.7 µM
IGROV1 ovarian
  TGI: > 100 µM
BT-549 breast
  TGI: 31.2 µM
HT29 colon
  TGI: 45.1 µM
CAKI-1 renal
  TGI: 81.6 µM
UACC-62 melanoma
  TGI: 58.3 µM
MDA-MB-231 breast
  TGI: 91.5 µM
HOP-92 NSCLC
  TGI: > 100 µM
UACC-257 melanoma
  TGI: 55.3 µM
TK-10 renal
  TGI: > 100 µM
NCI-H226 lung
  TGI: 60.4 µM
M14 melanoma
  TGI: > 100 µM
OVCAR-8 ovarian
  TGI: > 100 µM
MDA-MB-435
  TGI: > 100 µM
SF-295 CNS
  TGI: 35.1 µM
NCI/ADR-RES ovarian
  TGI: > 100 µM
HCT-116 colon
  TGI: 42.7 µM
SNB-19 CNS
  TGI: 56.5 µM
COLO 205 colon
  TGI: 41 µM
SNB-75 CNS
  TGI: 56 µM

## CN(C)CCn1c(=O)c2ccc(NCCNCCO)c3c(=O)c4cc(O)ccc4n(c1=O)c23
HL-60(TB) leukemia
  TGI: 4.61 µM
SK-MEL-5 melanoma
  TGI: 5.22 µM
SW-620 colon
  TGI: 11.2 µM
SK-MEL-28 melanoma
  TGI: 17 µM
NCI-H460 lung
  TGI: 4.51 µM
CCRF-CEM leukemia
  TGI: 2.05 µM
MDA-N
  TGI: 7.49 µM
HS 578T breast
  TGI: 11.4 µM
MALME-3M melanoma
  TGI: 17.1 µM
PC-3 prostate
  TGI: 25.1 µM
SF-539 CNS
  TGI: 1.65 µM
NCI-H23 lung
  TGI: 3.64 µM
SK-OV-3 ovarian
  TGI: 46.7 µM
HOP-62 NSCLC
  TGI: 4.16 µM
OVCAR-3 ovarian
  TGI: 19.3 µM
A549 NSCLC
  TGI: 33.9 µM
SR leukemia
  TGI: 0.619 µM
DU-145 prostate
  TGI: 4.97 µM
SN12C renal
  TGI: 5.15 µM
HCT-15 colon
  TGI: 53.8 µM
RXF 393 renal
  TGI: 3.73 µM
U251 CNS
  TGI: 8.27 µM
LOX IMVI melanoma
  TGI: 4.42 µM
KM12 colon
  TGI: 26.6 µM
K-562 leukemia
  TGI: > 30.5 µM
A498 renal
  TGI: 25.7 µM
EKVX NSCLC
  TGI: 14.3 µM
NCI-H522 lung
  TGI: 3.58 µM
OVCAR-5 ovarian
  TGI: 16.1 µM
RPMI-8226 leukemia
  TGI: 8.43 µM
MCF7 breast
  TGI: 6.23 µM
MOLT-4 leukemia
  TGI: 1.17 µM
T-47D breast
  TGI: 13.3 µM
OVCAR-4 ovarian
  TGI: 3.55 µM
UO-31 renal
  TGI: 28.2 µM
ACHN renal
  TGI: 8.64 µM
786-0 renal
  TGI: 13.2 µM
SF-268 CNS
  TGI: 14.9 µM
IGROV1 ovarian
  TGI: 7.47 µM
BT-549 breast
  TGI: 32.4 µM
HT29 colon
  TGI: 5.2 µM
UACC-62 melanoma
  TGI: 4.23 µM
MDA-MB-231 breast
  TGI: 3.37 µM
SK-MEL-2 melanoma
  TGI: 6.85 µM
HCC-2998 colon
  TGI: 2.18 µM
HOP-92 NSCLC
  TGI: 4.56 µM
UACC-257 melanoma
  TGI: 19.2 µM
TK-10 renal
  TGI: 21.1 µM
NCI-H226 lung
  TGI: 5.71 µM
M14 melanoma
  TGI: 13.6 µM
OVCAR-8 ovarian
  TGI: 7.47 µM
MDA-MB-435
  TGI: 6.53 µM
SF-295 CNS
  TGI: 21.1 µM
NCI/ADR-RES ovarian
  TGI: > 100 µM
HCT-116 colon
  TGI: 3.15 µM
SNB-19 CNS
  TGI: 10.8 µM
COLO 205 colon
  TGI: 4.6 µM
SNB-75 CNS
  TGI: 6.2 µM

## CC(=O)Oc1ccc2c(c1)c1c(OC(C)=O)c3ccccc3c(OC(C)=O)c1n2Cc1cccc(C)c1
HL-60(TB) leukemia
  TGI: > 100 µM
SK-MEL-28 melanoma
  TGI: > 100 µM
NCI-H460 lung
  TGI: > 100 µM
CCRF-CEM leukemia
  TGI: 62.6 µM
MDA-N
  TGI: > 100 µM
HS 578T breast
  TGI: 78.3 µM
MALME-3M melanoma
  TGI: > 100 µM
PC-3 prostate
  TGI: > 100 µM
SF-539 CNS
  TGI: 79.3 µM
NCI-H23 lung
  TGI: > 100 µM
SK-OV-3 ovarian
  TGI: 53.5 µM
HOP-62 NSCLC
  TGI: 67.3 µM
OVCAR-3 ovarian
  TGI: 72.9 µM
A549 NSCLC
  TGI: > 100 µM
SR leukemia
  TGI: 83.1 µM
DU-145 prostate
  TGI: > 100 µM
SN12C renal
  TGI: > 100 µM
HCT-15 colon
  TGI: > 100 µM
RXF 393 renal
  TGI: > 100 µM
U251 CNS
  TGI: > 100 µM
KM12 colon
  TGI: > 100 µM
K-562 leukemia
  TGI: > 100 µM
A498 renal
  TGI: 70.6 µM
EKVX NSCLC
  TGI: 57.3 µM
NCI-H522 lung
  TGI: 52.8 µM
OVCAR-5 ovarian
  TGI: > 100 µM
RPMI-8226 leukemia
  TGI: 74.4 µM
MCF7 breast
  TGI: > 100 µM
MOLT-4 leukemia
  TGI: > 100 µM
T-47D breast
  TGI: > 100 µM
OVCAR-4 ovarian
  TGI: > 100 µM
UO-31 renal
  TGI: > 100 µM
ACHN renal
  TGI: > 100 µM
786-0 renal
  TGI: > 100 µM
SF-268 CNS
  TGI: > 100 µM
IGROV1 ovarian
  TGI: > 100 µM
BT-549 breast
  TGI: > 100 µM
HT29 colon
  TGI: > 100 µM
CAKI-1 renal
  TGI: > 100 µM
UACC-62 melanoma
  TGI: > 100 µM
MDA-MB-231 breast
  TGI: > 100 µM
SK-MEL-2 melanoma
  TGI: 48.4 µM
HCC-2998 colon
  TGI: 84.2 µM
HOP-92 NSCLC
  TGI: 33.5 µM
TK-10 renal
  TGI: > 100 µM
NCI-H226 lung
  TGI: > 100 µM
M14 melanoma
  TGI: > 100 µM
OVCAR-8 ovarian
  TGI: > 100 µM
MDA-MB-435
  TGI: > 100 µM
SF-295 CNS
  TGI: 72.3 µM
NCI/ADR-RES ovarian
  TGI: > 100 µM
HCT-116 colon
  TGI: > 100 µM
SNB-19 CNS
  TGI: > 100 µM
COLO 205 colon
  TGI: > 100 µM
SNB-75 CNS
  TGI: 41.6 µM
